Data as given in ChEMBL document CHEMBL5331134, “Identification of Brain-Penetrant ATP-Competitive mTOR Inhibitors for CNS Syndromes” (J Med Chem, 2023).
One block for each molecule: values may come before it.

Key:
[1] = Phototoxicity against mouse BALB/3T3 clone A31 cells assessed as photo-irradiation factor incubated for 1 hr followed by irradiated with 5 J/cm^2 of light dose measured after 24 hrs by neutral red uptake assay; format: toxicity, cell-based; settings: balb/3t3 clone a31, 1 h
[2] = In vivo inhibition of phosphorylation of S6 at serine 240/244 residues in C57BL/6 mouse brain at 10 to 30 mg/kg, po measured after 1 to 3 hrs by Western blotting analysis; format: organism-based; settings: dose lower 10 mg/kg, time lower 1 hrs, dose upper 30 mg/kg, time upper 3 hrs
[3] = AUC(0 to t) in Beagle dog at 0.3 mg/kg, iv measured upto 24 hrs by LC/MS/MS analysis; format: ADME, organism-based, Canis lupus familiaris; set-up: time < 24 hrs, dose 0.3 mg/kg, route iv; settings: in vivo
[4] = AUC(0 to t) in Beagle dog at 1 mg/kg, po measured upto 24 hrs by LC/MS/MS analysis; format: ADME, organism-based, Canis lupus familiaris; set-up: time < 24 hrs, dose 1 mg/kg, route po; settings: in vivo
[5] = Cmax in Beagle dog at 1 mg/kg, po measured upto 24 hrs by LC/MS/MS analysis; format: ADME, organism-based, Canis lupus familiaris; set-up: dose 1 mg/kg, time < 24 hrs, route po; settings: in vivo
[6] = Tmax in Beagle dog at 1 mg/kg, po and 0.3 mg/kg, iv measured upto 24 hrs by LC/MS/MS analysis; format: ADME, organism-based, Canis lupus familiaris; settings: in vivo
[7] = Bioavailability in Beagle dog at 1 mg/kg, po and 0.3 mg/kg, iv measured upto 24 hrs by LC/MS/MS analysis; format: ADME, organism-based, Canis lupus familiaris; settings: in vivo
[8] = Half life in Beagle dog at 1 mg/kg, po and 0.3 mg/kg, iv measured upto 24 hrs by LC/MS/MS analysis; format: ADME, organism-based, Canis lupus familiaris; settings: in vivo
[9] = MRT(0 to t) in Beagle dog at 1 mg/kg, po and 0.3 mg/kg, iv measured upto 24 hrs by LC/MS/MS analysis; format: ADME, organism-based, Canis lupus familiaris; settings: in vivo
[10] = AUC(0 to t) in cynomolgus monkey at 0.3 mg/kg, po measured upto 24 hrs by LC/MS/MS analysis; format: ADME, organism-based, Macaca fascicularis; set-up: dose 0.3 mg/kg, time < 24 hrs, route po; settings: in vivo
[11] = Cmax in cynomolgus monkey at 0.3 mg/kg, po measured upto 24 hrs by LC/MS/MS analysis; format: ADME, organism-based, Macaca fascicularis; set-up: dose 0.3 mg/kg, time < 24 hrs, route po; settings: in vivo
[12] = Tmax in cynomolgus monkey at 0.3 mg/kg, po measured upto 24 hrs by LC/MS/MS analysis; format: ADME, organism-based, Macaca fascicularis; settings: in vivo
[13] = In vivo inhibition of phosphorylation of S6 at serine 240/244 residues in C57BL/6 mouse brain at 3 to 10 mg/kg, po measured after 8 hrs by Western blotting analysis; format: organism-based; settings: dose 3-10 mg/kg
[14] = In vivo inhibition of phosphorylation of S6 at serine 240/244 residues in C57BL/6 mouse brain at 30 mg/kg, po measured after 24 hrs by Western blotting analysis; format: organism-based
[15] = In vivo inhibition of phosphorylation of AKT at serine 473 residues in C57BL/6 mouse brain at 10 mg/kg, po measured after 8 hrs by Western blotting analysis; format: organism-based
[16] = In vivo inhibition of phosphorylation of AKT at serine 473 residues in C57BL/6 mouse brain at 30 mg/kg, po measured after 24 hrs by Western blotting analysis; format: organism-based
[17] = Drug concentration in C57BL/6 mouse plasma at 1 mg/kg, po measured after 1 hr; format: ADME, organism-based
[18] = Drug concentration in C57BL/6 mouse brain at 3 mg/kg, po measured after 1 hr; format: ADME, organism-based; settings: read-out: Ct
[19] = Drug concentration in C57BL/6 mouse plasma at 3 mg/kg, po measured after 1 hr; format: ADME, organism-based
[20] = Ratio of drug concentration in brain to plasma in C57BL/6 mouse at 3 mg/kg, po measured at 1 hr; format: ADME, organism-based; settings: read-out: BPR
[21] = Ratio of drug concentration in brain to plasma in C57BL/6 mouse at 1 mg/kg, po measured at 3 hrs; format: ADME, organism-based; settings: read-out: BPR
[22] = Drug concentration in C57BL/6 mouse plasma at 3 mg/kg, po measured after 3 hrs; format: ADME, organism-based
[23] = Ratio of drug concentration in brain to plasma in C57BL/6 mouse at 3 mg/kg, po measured at 3 hrs; format: ADME, organism-based; settings: read-out: BPR
[24] = Ratio of drug concentration in brain to plasma in C57BL/6 mouse at 1 mg/kg, po measured at 8 hrs; format: ADME, organism-based; settings: read-out: BPR
[25] = Drug concentration in C57BL/6 mouse brain at 3 mg/kg, po measured after 8 hrs; format: ADME, organism-based; settings: read-out: Ct
[26] = Drug concentration in C57BL/6 mouse plasma at 3 mg/kg, po measured after 8 hrs; format: ADME, organism-based
[27] = Drug concentration in C57BL/6 mouse brain at 10 mg/kg, po measured after 8 hrs; format: ADME, organism-based; settings: read-out: Ct
[28] = Drug concentration in C57BL/6 mouse brain at 30 mg/kg, po measured after 8 hrs; format: ADME, organism-based; settings: read-out: Ct
[29] = Drug concentration in C57BL/6 mouse plasma at 30 mg/kg, po measured after 8 hrs; format: ADME, organism-based
[30] = Ratio of drug concentration in brain to plasma in C57BL/6 mouse at 30 mg/kg, po measured at 8 hrs; format: ADME, organism-based; settings: read-out: BPR
[31] = Drug concentration in C57BL/6 mouse brain at 1 mg/kg, po measured after 24 hrs; format: ADME, organism-based; settings: read-out: Ct
[32] = Drug concentration in C57BL/6 mouse plasma at 1 mg/kg, po measured after 24 hrs; format: ADME, organism-based
[33] = Ratio of drug concentration in brain to plasma in C57BL/6 mouse at 1 mg/kg, po measured after 24 hrs; format: ADME, organism-based; settings: read-out: BPR
[34] = Drug concentration in C57BL/6 mouse brain at 3 mg/kg, po measured after 24 hrs; format: ADME, organism-based; settings: read-out: Ct
[35] = Drug concentration in C57BL/6 mouse plasma at 3 mg/kg, po measured after 24 hrs; format: ADME, organism-based
[36] = Ratio of drug concentration in brain to plasma in C57BL/6 mouse at 3 mg/kg, po measured after 24 hrs; format: ADME, organism-based; settings: read-out: BPR
[37] = Drug concentration in C57BL/6 mouse brain at 10 mg/kg, po measured after 24 hrs; format: ADME, organism-based; settings: read-out: Ct
[38] = Ratio of drug concentration in brain to plasma in C57BL/6 mouse at 10 mg/kg, po measured at 24 hrs; format: ADME, organism-based; settings: brain and plasma, read-out: BPR
[39] = AUC(0 to t) in cynomolgus monkey at 0.1 mg/kg, iv measured upto 24 hrs by LC/MS/MS analysis; format: ADME, organism-based, Macaca fascicularis; set-up: dose 0.1 mg/kg, time < 24 hrs, route iv; settings: in vivo
[40] = AUC(0 to t) in cynomolgus monkey at 1 mg/kg, po measured upto 24 hrs by LC/MS/MS analysis; format: ADME, organism-based, Macaca fascicularis; set-up: time < 24 hrs, dose 1 mg/kg, route po; settings: in vivo
[41] = Tmax in cynomolgus monkey at 1 mg/kg, po and 0.1 mg/kg, iv measured upto 24 hrs by LC/MS/MS analysis; format: ADME, organism-based, Macaca fascicularis; settings: in vivo
[42] = Volume of distribution at steady state in cynomolgus monkey at 1 mg/kg, po and 0.1 mg/kg, iv measured upto 24 hrs by LC/MS/MS analysis; format: ADME, organism-based, Macaca fascicularis; settings: in vivo
[43] = Half life in cynomolgus monkey at 1 mg/kg, po and 0.1 mg/kg, iv measured upto 24 hrs by LC/MS/MS analysis; format: ADME, organism-based, Macaca fascicularis; settings: in vivo
[44] = MRT(0 to t) in cynomolgus monkey at 1 mg/kg, po and 0.1 mg/kg, iv measured upto 24 hrs by LC/MS/MS analysis; format: ADME, organism-based, Macaca fascicularis; settings: in vivo

inhibition (INH) [2]: Active
AUC(0-t) at 24 h [3]: 0.147 µM·h
AUC(0-t) at 24 h [4]: 0.056 µM·h
Cmax [5]: 34 nM
Tmax [6]: 0.8 h
bioavailability [7]: 11%
half-life [8]: 1.9 h
MRT last at 24 h [9]: 0.9 h
AUC(0-t) at 24 h [10]: 0.125 µM·h
Cmax [11]: 13 nM
Tmax [12]: 1.2 h
SMILES: C[C@@H]1COCCN1c1cc(N2CCOC[C@@H]2C)nc2[nH]c(-c3ccccn3)nc12
Activity [1]: 1

inhibition (INH) [13]: Active
inhibition (INH) [14]: Active
inhibition (INH) [15]: Active
inhibition (INH) [16]: Active
concentration at 1 h [17]: 766 nM
concentration at 1 h [18]: 1400 nM
concentration at 1 h [19]: 2750 nM
Kp at 1 h [20]: 0.51
Kp at 3 h [21]: 0.36
concentration at 3 h [22]: 2050 nM
Kp at 3 h [23]: 0.45
Kp at 8 h [24]: 0.37
concentration at 8 h [25]: 341 nM
concentration at 8 h [26]: 1190 nM
concentration at 8 h [27]: 230 nM
concentration at 8 h [28]: 462 nM
concentration at 8 h [29]: 632 nM
Kp at 8 h [30]: 0.73
concentration at 24 h [31]: 7 nM
concentration at 24 h [32]: 4 nM
Kp at 24 h [33]: 1.91
concentration at 24 h [34]: 5 nM
concentration at 24 h [35]: 6 nM
Kp at 24 h [36]: 0.84
concentration at 24 h [37]: 130 nM
Kp at 24 h [38]: 0.62
AUC(0-t) at 24 h [39]: 0.34 µM·h
AUC(0-t) at 24 h [40]: 3.75 µM·h
Tmax [41]: 1.2 h
Vdss [42]: 3 L/kg
half-life [43]: 5 h
MRT last at 24 h [44]: 4.2 h
SMILES: C[C@@H]1COCCN1c1cc(N2CCOC[C@@H]2C)nc2[nH]c(-c3cscn3)nc12
